Results published in patent US20060025483A1, “(-)-Hydroxycitric acid for protection against soft tissue and arterial calcification” (priority 2004, published 2006).

What was measured:
[1] = pilot open clinical weight loss trial with extremely obese patients; format: in vivo, human
Text: A multi-week pilot open clinical weight loss trial with extremely obese patients was planned to gauge the effects of a pouch delivery form of a potassium salt of (−)-hydroxycitrate under the normal circumstances faced in clinical practice with this patient population. Fourteen patients were enrolled, three of whom were diabetics on medications and several others who were suspected of suffering from insulin resistance. The patients ingested 3-4 grams of HCA per day in two divided doses. Aside from being informed that they must eat a carbohydrate-containing meal within one hour of taking the HCA and that they should avoid eating late in the day, they were not instructed to follow any special diet or exercise plan outside their normal habits and no caloric restriction was imposed. This particular form of potassium (−)-hydroxycitrate delivery typically was mixed into water or juice and consumed at mid-morning and mid-afternoon. The delivery was a water-soluble immediate release form. […] A number of patients continued on the program for 6 weeks. However, comparative data was good for only 3 weeks because two of the diagnosed diabetics experienced hypoglycemic reactions. Several other patients experienced good appetite suppression, yet also complained off episodic tiredness at the beginning of the program, a sign of low blood sugar. Two patients subsequently were placed on phentermine. […] The average weight loss over the 3 week period for these patients was approximately 3 pounds per person per week. […] At therapeutically effective dosages, HCA probably should be used with diabetic populations only under a physician's care.

[2] = tested on: ACE system; assay: response of SBP to losartan challenge; format: in vivo, Spontaneously hypertensive rats (SHR); conditions: at 6 hours; control SHR without HCA
Text: Many factors can positively influence blood pressure, e.g., diuretics, antioxidants, regulators of sympathetic/parasympathetic tone, compounds that improve insulin sensitivity and so forth. Therefore, losartan, an angiotensin-2 receptor blocker, was utilized to discover whether the ACE system was involved in the results discussed in Example 1.
Spontaneously hypertensive rats (SHR) were placed on a diet composed of regular rat chow (60% w/w) and table sugar (40% w/w). This diet reliably elevates blood pressure in this animal model. One group received 100 mg HCA per day in the form of a new potassium-magnesium hydroxycitrate (different from that used in Example 1) via an added 5 g HCA per kg of food mix. Systolic blood pressure and body weight were tested as in Example 1 on a weekly basis.
When losartan was injected, the SBP of both groups decreased. At 6 hours, the SBP were essentially the same. […] Thus, HCA appears to decrease angiotensin-2 in rats and to lower elevated SBP. Although insulin regulation likely is a factor in the blood pressure modulating effect of HCA, this evidence argues that inhibition of ACE is also important. […]

Compound | average weight loss ([1]; 3-4 grams of HCA per day in two divided doses, over the 3 week period) | tolerability ([1]; apart from inconvenience and poor taste) | hypoglycemic effect ([1]; immediate release format, diabetics, 3-4 grams of HCA per day) | weight loss ([1]; one patient, over 10 weeks) [pounds] | decrease in SBP after losartan injection [2]
O=C([O-])CC(O)(C(=O)[O-])C(O)C(=O)[O-].[K+].[K+].[K+] (stereo not drawn) [potassium (−)-hydroxycitrate] | approximately 3 pounds per person per week | no other issues of tolerability | strong hypoglycemic effect in diabetics | 32 | 
CCCCc1nc(Cl)c(CO)n1Cc1ccc(-c2ccccc2-c2nn[nH]n2)cc1 [losartan, reference compound] |  |  |  |  | −50±6.1
